Details: 101.33 kPa, Liquid; for speed of sound: Pulse-echo method; for mass density: Vibrating tube method

C[NH2+]CCO.O=C[O-] [2-hydroxy-N-methylethanaminium formate]
Details	mass density [kg/m3]	speed of sound [m/s]	viscosity [mPa·s]
278.15 K	1139.41	1854.7	–
278.4 K	1139.26	1854.2	–
278.65 K	1139.13	1853.7	–
278.9 K	1138.99	1853.2	–
279.15 K	1138.85	1852.7	–
279.4 K	1138.71	1852.2	–
279.65 K	1138.58	1851.7	–
279.9 K	1138.44	1851.2	–
280.15 K	1138.3	1850.7	–
280.4 K	1138.16	1850.2	–
280.65 K	1138.02	1849.7	–
280.9 K	1137.88	1849.2	–
281.15 K	1137.73	1848.7	–
281.4 K	1137.6	1848.2	–
281.65 K	1137.46	1847.7	–
281.9 K	1137.32	1847.2	–
282.15 K	1137.18	1846.8	–
282.4 K	1137.04	1846.3	–
282.65 K	1136.9	1845.8	–
282.9 K	1136.77	1845.3	–
283.15 K	1136.62	1844.8	–
283.4 K	1136.49	1844.3	–
283.65 K	1136.35	1843.8	–
283.9 K	1136.21	1843.3	–
284.15 K	1136.07	1842.8	–
284.4 K	1135.93	1842.3	–
284.65 K	1135.79	1841.8	–
284.9 K	1135.65	1841.3	–
285.15 K	1135.51	1840.8	–
285.4 K	1135.37	1840.3	–
285.65 K	1135.23	1839.8	–
285.9 K	1135.09	1839.3	–
286.15 K	1134.95	1838.9	–
286.4 K	1134.81	1838.4	–
286.65 K	1134.67	1837.9	–
286.9 K	1134.53	1837.4	–
287.15 K	1134.39	1836.9	–
287.4 K	1134.25	1836.4	–
287.65 K	1134.11	1835.9	–
287.9 K	1133.97	1835.4	–
288.15 K	1133.84	1834.9	34.2
288.4 K	1133.69	1834.4	–
288.65 K	1133.55	1833.9	–
288.9 K	1133.41	1833.4	–
289.15 K	1133.28	1833	–
289.4 K	1133.13	1832.5	–
289.65 K	1133	1832	–
289.9 K	1132.86	1831.5	–
290.15 K	1132.72	1831	–
290.4 K	1132.58	1830.5	–
290.65 K	1132.44	1830	30.15
290.9 K	1132.3	1829.5	–
291.15 K	1132.16	1829	–
291.4 K	1132.01	1828.5	–
291.65 K	1131.88	1828	–
291.9 K	1131.74	1827.5	–
292.15 K	1131.6	1827	–
292.4 K	1131.46	1826.6	–
292.65 K	1131.32	1826.1	–
292.9 K	1131.18	1825.6	–
293.15 K	1131.04	1825.1	26.05
293.4 K	1130.9	1824.6	–
293.65 K	1130.76	1824.1	–
293.9 K	1130.62	1823.6	–
294.15 K	1130.48	1823.2	–
294.4 K	1130.34	1822.7	–
294.65 K	1130.2	1822.2	–
294.9 K	1130.06	1821.7	–
295.15 K	1129.92	1821.2	–
295.4 K	1129.78	1820.7	–
295.65 K	1129.64	1820.2	23.22
295.9 K	1129.5	1819.7	–
296.15 K	1129.37	1819.2	–
296.4 K	1129.23	1818.7	–
296.65 K	1129.08	1818.2	–
296.9 K	1128.94	1817.7	–
297.15 K	1128.8	1817.3	–
297.4 K	1128.66	1816.8	–
297.65 K	1128.52	1816.3	–
297.9 K	1128.38	1815.8	–
298.15 K	1128.25	1815.3	20.27
298.4 K	1128.11	1814.8	–
298.65 K	1127.96	1814.3	–
298.9 K	1127.83	1813.8	–
299.15 K	1127.69	1813.4	–
299.4 K	1127.55	1812.9	–
299.65 K	1127.41	1812.4	–
299.9 K	1127.27	1811.9	–
300.15 K	1127.13	1811.4	–
300.4 K	1126.99	1810.9	–
300.65 K	1126.85	1810.4	18.37
300.9 K	1126.71	1809.9	–
301.15 K	1126.57	1809.5	–
301.4 K	1126.43	1809	–
301.65 K	1126.29	1808.5	–
301.9 K	1126.15	1808	–
302.15 K	1126.02	1807.5	–
302.4 K	1125.87	1807	–
302.65 K	1125.73	1806.5	–
302.9 K	1125.59	1806	–
303.15 K	1125.45	1805.6	16.4
303.4 K	1125.32	1805.1	–
303.65 K	1125.18	1804.6	–
303.9 K	1125.04	1804.1	–
304.15 K	1124.89	1803.6	–
304.4 K	1124.76	1803.2	–
304.65 K	1124.62	1802.7	–
304.91 K	1124.48	1802.2	–
305.15 K	1124.34	1801.7	15.1
305.4 K	1124.2	1801.2	–
305.65 K	1124.06	1800.7	–
305.9 K	1123.92	1800.2	–
306.15 K	1123.78	1799.7	–
306.4 K	1123.64	1799.3	–
306.65 K	1123.5	1798.8	–
306.9 K	1123.36	1798.3	–
307.15 K	1123.22	1797.8	–
307.4 K	1123.08	1797.3	–
307.65 K	1122.94	1796.8	–
307.9 K	1122.8	1796.3	–
308.15 K	1122.67	1795.8	13.73
308.4 K	1122.53	1795.4	–
308.65 K	1122.39	1794.9	–
308.9 K	1122.25	1794.4	–
309.15 K	1122.11	1793.9	–
309.4 K	1121.97	1793.4	–
309.65 K	1121.83	1792.9	–
309.9 K	1121.69	1792.5	–
310.15 K	1121.55	1792	12.78
310.4 K	1121.41	1791.5	–
310.65 K	1121.27	1791	–
310.91 K	1121.13	1790.5	–
311.16 K	1120.99	1790	–
311.4 K	1120.85	1789.5	–
311.65 K	1120.71	1789	–
311.91 K	1120.57	1788.5	–
312.16 K	1120.43	1788	–
312.41 K	1120.29	1787.6	–
312.66 K	1120.15	1787.1	–
312.91 K	1120.02	1786.6	–
313.15 K	–	–	11.4
313.16 K	1119.87	1786.1	–
313.4 K	1119.74	1785.6	–
313.66 K	1119.6	1785.1	–
313.9 K	1119.46	1784.6	–
314.15 K	1119.32	1784.1	–
314.4 K	1119.18	1783.6	–
314.65 K	1119.04	1783.1	–
314.9 K	1118.9	1782.7	–
315.15 K	1118.77	1782.2	10.56
315.41 K	1118.62	1781.7	–
315.65 K	1118.49	1781.2	–
315.91 K	1118.35	1780.7	–
316.16 K	1118.21	1780.2	–
316.41 K	1118.07	1779.7	–
316.66 K	1117.93	1779.2	–
316.91 K	1117.79	1778.8	–
317.16 K	1117.65	1778.3	–
317.4 K	1117.52	1777.8	–
317.65 K	–	–	9.7
317.66 K	1117.38	1777.3	–
317.91 K	1117.24	1776.8	–
318.16 K	1117.1	1776.3	–
318.41 K	1116.96	1775.8	–
318.65 K	1116.82	1775.3	–
318.9 K	1116.69	1774.8	–
319.16 K	1116.55	1774.4	–
319.41 K	1116.41	1773.9	–
319.65 K	1116.27	1773.4	–
319.91 K	1116.13	1772.9	–
320.16 K	1115.99	1772.4	–
320.41 K	1115.86	1772	–
320.65 K	1115.72	1771.5	9.07
320.91 K	1115.58	1771	–
321.15 K	1115.44	1770.5	–
321.41 K	1115.3	1770	–
321.66 K	1115.16	1769.6	–
321.9 K	1115.03	1769.1	–
322.15 K	1114.89	1768.6	–
322.41 K	1114.75	1768.1	–
322.65 K	1114.61	1767.6	–
322.91 K	1114.47	1767.2	–
323.15 K	–	–	8.38
323.16 K	1114.34	1766.7	–
323.41 K	1114.2	1766.2	–
323.65 K	1114.06	1765.7	–
323.91 K	1113.92	1765.2	–
324.16 K	1113.79	1764.8	–
324.41 K	1113.65	1764.3	–
324.65 K	1113.51	1763.8	–
324.9 K	1113.38	1763.3	–
325.16 K	1113.24	1762.8	–
325.4 K	1113.1	1762.3	–
325.66 K	1112.96	1761.9	–
325.9 K	1112.83	1761.4	–
326.16 K	1112.69	1760.9	–
326.41 K	1112.55	1760.4	–
326.66 K	1112.42	1759.9	–
326.9 K	1112.28	1759.4	–
327.16 K	1112.14	1759	–
327.4 K	1112.01	1758.5	–
327.66 K	1111.87	1758	–
327.9 K	1111.74	1757.5	–
328.15 K	1111.6	1757	–
328.41 K	1111.46	1756.5	–
328.66 K	1111.33	1756	–
328.9 K	1111.19	1755.6	–
329.16 K	1111.06	1755.1	–
329.4 K	1110.92	1754.6	–
329.65 K	1110.78	1754.1	–
329.9 K	1110.65	1753.6	–
330.16 K	1110.52	1753.2	–
330.41 K	1110.38	1752.7	–
330.66 K	1110.25	1752.2	–
330.91 K	1110.12	1751.8	–
331.16 K	1109.99	1751.3	–
331.41 K	1109.86	1750.8	–
331.66 K	1109.73	1750.3	–
331.91 K	1109.6	1749.9	–
332.16 K	1109.47	1749.4	–
332.41 K	1109.34	1748.9	–
332.66 K	1109.21	1748.5	–
332.91 K	1109.08	1748	–
333.16 K	1108.95	1747.5	–
333.41 K	1108.82	1747.1	–
333.66 K	1108.69	1746.6	–
333.91 K	1108.56	1746.2	–
334.16 K	1108.43	1745.7	–
334.41 K	1108.3	1745.2	–
334.66 K	1108.18	1744.8	–
334.91 K	1108.05	1744.3	–
335.16 K	1107.92	1743.8	–
335.41 K	1107.79	1743.4	–
335.66 K	1107.67	1742.9	–
335.91 K	1107.54	1742.5	–
336.16 K	1107.42	1742	–
336.41 K	1107.29	1741.6	–
336.66 K	1107.16	1741.1	–
336.9 K	1107.03	1740.7	–
337.16 K	1106.9	1740.2	–
337.4 K	1106.78	1739.8	–
337.66 K	1106.66	1739.4	–
337.9 K	1106.53	1738.9	–
338.15 K	1106.43	1738.6	–

— the NIST ThermoML archive (doi:10.1021/je900550v)
